# Assay results as given in patent publication US11274083B2, “Substituted thiophenyl uracils, salts thereof and the use thereof as herbicidal agents” (Syngenta Crop Protection AG, priority 2017, dated 2022).
# Legend:
# Format in all cases: in vivo
# Amaranthus retroflexus [1] = assay: Herbicidal action post-emergence, greenhouse pot test
# In short: (§1)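 Sandy loam pots, greenhouse; one-leaf stage (2–3 wk post-sowing); WP/EC spray as aqueous suspension/emulsion + 0.5% additive, 600 L/ha; rate ≤80 g/ha; visual % efficacy vs untreated at ~3 wk.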
# Matricaria inodora [2] = assay: as above; settings: application rate 20 g/ha
# In short: as §1
# Stellaria media [3] = assay: as above
# In short: as §1
# Alopecurus myosuroides [4] = assay: as above; settings: application rate 20 g/ha, scored visually after about 3 weeks vs untreated controls
# In short: as §1
# Polygonum convolvulus [5] = assay: as above; settings: application rate 20 g/ha
# In short: as §1
# Echinochloa crus-galli [6] = assay: as above
# In short: as §1
# Veronica persica [7] = assay: as above
# In short: as §1
# Abutilon theophrasti [8] = assay: as above
# In short: as §1
# Setaria viridis [9] = assay: as above
# In short: as §1
# Viola tricolor = assay: as above
# In short: as §1
# Pharbitis purpurea [10] = assay: as above
# In short: as §1
# Triticum aestivum = assay: Crop compatibility post-emergence, greenhouse pot test
# In short: (§2)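 Greenhouse post-emergence spray at one-leaf stage, 600 L/ha with 0.5% additive. Injury was assessed visually after about 3 weeks as % of untreated control.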
# Glycine max = assay: as above; settings: application rate 5 g/ha
# In short: as §2
# Zea mays = assay: as above
# In short: as §2
# Oryza sativa = assay: as above
# In short: as §2
# Digitaria sanguinalis = assay: Herbicidal action post-emergence, greenhouse pot test; settings: application rate 20 g/ha
# Amaranthus retroflexus [11] = assay: Herbicidal action pre-emergence, greenhouse pot test; settings: application rate 80 g/ha
# In short: (§3)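 Pre-emergence soil-surface spray, WP/EC formulations in water plus 0.5% additive, 600 L/ha spray volume; rate 320 g/ha or lower. Greenhouse ~3 wk. Visual % efficacy vs untreated (100% = plants dead, 0% = like control).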
# Lolium rigidum = assay: as above; settings: application rate 320 g/ha
# In short: as §3
# Stellaria media [12] = assay: as above; settings: application rate 320 g/ha
# In short: as §3
# Alopecurus myosuroides [13] = assay: as above; settings: application rate 320 g/ha
# In short: as §3
# Polygonum convolvulus [14] = assay: as above; settings: application rate 320 g/ha
# In short: as §3
# Echinochloa crus-galli [15] = assay: as above; settings: application rate 320 g/ha
# In short: as §3
# Veronica persica [16] = assay: as above; settings: application rate 320 g/ha
# In short: as §3
# Abutilon theophrasti [17] = assay: as above; settings: application rate 320 g/ha
# In short: as §3
# Setaria viridis [18] = assay: as above; settings: application rate 320 g/ha
# In short: as §3
# Pharbitis purpurea [19] = assay: as above; settings: application rate 320 g/ha
# In short: as §3
# Matricaria inodora [20] = assay: as above; settings: application rate 320 g/ha
SMILES,Amaranthus retroflexus (Efficacy in %) (Amaranthus retroflexus [1]; application rate 20 g/ha) [%],Matricaria inodora (Efficacy in %) (Matricaria inodora [2]) [%],Stellaria media (Efficacy in %) (Stellaria media [3]; application rate 20 g/ha) [%],Polygonum convolvulus (Efficacy in %) (Polygonum convolvulus [5]) [%],Echinochloa crus-galli (Efficacy in %) (Echinochloa crus-galli [6]; application rate 20 g/ha) [%],Veronica persica (Efficacy in %) (Veronica persica [7]; application rate 20 g/ha) [%],Abutilon theophrasti (Efficacy in %) (Abutilon theophrasti [8]; application rate 70 g/ha) [%],Setaria viridis (Efficacy in %) (Setaria viridis [9]; application rate 20 g/ha) [%],Viola tricolor (Efficacy in %) (Viola tricolor; application rate 20 g/ha) [%],Pharbitis purpurea (Efficacy in %) (Pharbitis purpurea [10]; application rate 20 g/ha) [%],Triticum aestivum (Efficacy in %) (Triticum aestivum; application rate 20 g/ha) [%],Glycine max (Efficacy in %) (Glycine max) [%],Oryza sativa (Efficacy in %) (Oryza sativa; application rate 20 g/ha) [%],Digitaria sanguinalis (Efficacy in %) (Digitaria sanguinalis) [%],Zea mays (Efficacy in %) (Zea mays; application rate 20 g/ha) [%],other results
CCC(Sc1cc(-n2c(=O)cc(C(F)(F)F)n(C)c2=O)c(F)cc1Cl)C(=O)OCCC(=O)OCc1ccccc1 (centres unmarked) [I.2-6],100,100,100,100,100,100,100,100,100,100,20,20,10,80,,Alopecurus myosuroides (Efficacy in %) (Alopecurus myosuroides [4]): 80%; Zea mays (Efficacy in %) (Zea mays; application rate 5 g/ha): 0%
"CCOC(=O)COC(=O)C(CC)Sc1cc(-n2c(=O)cc(C(F)(F)F)n(C)c2=O)c(F)cc1Cl (centres unmarked) [I.2-43, 2-Ethoxy-2-oxoethyl 2-({2-chloro-4-fluoro-5-[3-methyl-2,6-dioxo-4-(trifluoromethyl)-3,6-dihydropyrimidin-1(2H)-yl]phenyl}sulfanyl)butanoate]",100,100,100,100,100,100,,100,100,100,10,20,20,,20,Abutilon theophrasti (Efficacy in %) (Abutilon theophrasti [8]; application rate 20 g/ha): 100%
COC(=O)CCOC(=O)C(C)(C)Sc1cc(-n2c(=O)cc(C(F)(F)F)n(C)c2=O)c(F)cc1Cl [I.46-2],,100,,100,,,,,,,20,20,,,20,Amaranthus retroflexus (Efficacy in %) (Amaranthus retroflexus [1]; application rate 80 g/ha): 100%; Stellaria media (Efficacy in %) (Stellaria media [3]; application rate 80 g/ha): 80%; Echinochloa crus-galli (Efficacy in %) (Echinochloa crus-galli [6]; application rate 80 g/ha): 100%; Veronica persica (Efficacy in %) (Veronica persica [7]; application rate 80 g/ha): 80%; Abutilon theophrasti (Efficacy in %) (Abutilon theophrasti [8]; application rate 80 g/ha): 100%; Setaria viridis (Efficacy in %) (Setaria viridis [9]; application rate 80 g/ha): 100%; Viola tricolor (Efficacy in %) (Viola tricolor; application rate 80 g/ha): 80%; Pharbitis purpurea (Efficacy in %) (Pharbitis purpurea [10]; application rate 80 g/ha): 100%; Amaranthus retroflexus (Efficacy in %) (Amaranthus retroflexus [11]): 100%; Lolium rigidum (Efficacy in %) (Lolium rigidum): 100%; Stellaria media (Efficacy in %) (Stellaria media [12]): 100%; Alopecurus myosuroides (Efficacy in %) (Alopecurus myosuroides [13]): 90%; Polygonum convolvulus (Efficacy in %) (Polygonum convolvulus [14]): 100%; Echinochloa crus-galli (Efficacy in %) (Echinochloa crus-galli [15]): 100%; Veronica persica (Efficacy in %) (Veronica persica [16]): 100%; Abutilon theophrasti (Efficacy in %) (Abutilon theophrasti [17]): 100%; Setaria viridis (Efficacy in %) (Setaria viridis [18]): 100%; Pharbitis purpurea (Efficacy in %) (Pharbitis purpurea [19]): 100%; Oryza sativa (Efficacy in %) (Oryza sativa; application rate 80 g/ha): 20%; Matricaria inodora (Efficacy in %) (Matricaria inodora [20]): 100%
CCCCC(Sc1cc(-n2c(=O)cc(C(F)(F)F)n(C)c2=O)c(F)cc1Cl)C(=O)OCCC(=O)OCc1ccccc1 (centres unmarked) [I.47-6],100,,80,100,,100,100,100,100,100,,20,20,80,20,Triticum aestivum (Efficacy in %) (Triticum aestivum; application rate 5 g/ha): 20%
